This is an account of results in patent publication US5869479A, “Treatment of upper airway allergic responses” (Schering Corporation, priority 1997, dated 1999).

The subject of data set [1] is nasal airway resistance. The data set can be described thus: Nasal airway resistance (NAR) in anesthetized cats after aerosolized Compound 48/80 challenge. It is filed as in vivo. An excerpt:
(§1) Adult cats are anesthetized with intraperitoneal injections of sodium pentobarbital. The right femoral artery and vein are cannulated for measurement of blood pressure with a pressure transducer, and for the administration of drugs. The animals are paralyzed with intravenous gallamine triethiodide and subsequently mechanically ventilated with room air, using an animal ventilator. After isolation of the cervical […], a cuffed endotracheal tube is advanced rostrally into the posterior nasopharynx and inflated to form an air-tight seal, allowing continuous measurement of pressure changes within the nasal cavity. The right nasal airway is occluded with dental impression compound, and humidified air is passed through the left nasal airway at about 1.7 liters per minute. By means of pressure transducers, nasal airway pressure and insufflation pressure can be derived and electronically recorded.
The known histamine releaser "Compound 48/80" (the condensation product of N-methyl-p-methoxyphenethylamine with formaldehyde, sold by Sigma Chemical Company, St. Louis, Mo., USA), as a 1.0 percent solution in 0.9 percent aqueous saline solution, is aerosolized into the air stream for 2 minutes to induce an increased NAR. This effect is used to study the decongestant effects of various test substances, administered to the animals intravenously 10 minutes prior to the introduction of Compound 48/80. These substances include 0.9 percent aqueous saline (normal saline "Vehicle"), phenylpropanolamine hydrochloride at 1.0 mg/Kg of the free drug, thioperamide maleate at 10 mg/Kg of the free drug and chlorpheniramine maleate at 0.8 mg/Kg of the free drug, all of the drug compounds being in solution in 0.9 percent aqueous saline. […]

Data set [2] is described as follows: Blood pressure change from baseline in the cat experiments. It is filed as in vivo, cats. The note with it: Example 4, phenylpropanolamine 1 mg/Kg.
Text: as §1
The known histamine releaser "Compound 48/80" (the condensation product of N-methyl-p-methoxyphenethylamine with formaldehyde, sold by Sigma Chemical Company, St. Louis, Mo., USA), as a 1.0 percent solution in 0.9 percent aqueous saline solution, is aerosolized into the air stream for 2 minutes to induce an increased NAR. This effect is used to study the decongestant effects of various test substances, administered to the animals intravenously 10 minutes prior to the introduction of Compound 48/80. These substances include 0.9 percent aqueous saline (normal saline "Vehicle"), phenylpropanolamine hydrochloride at 1.0 mg/Kg of the free drug, thioperamide maleate at 10 mg/Kg of the free drug and chlorpheniramine maleate at 0.8 mg/Kg of the free drug, all of the drug compounds being in solution in 0.9 percent aqueous saline.
Blood pressure data from the experiments of the preceding examples are examined, to determine the effects of certain congestion-preventing treatments.

The target in data set [3] is T1, histamine H3 receptor (Cavia porcellus, UniProt Q9JI35).
T1 construct: from tissue; host or cells: guinea pig brain membranes
The data set can be described thus: Guinea pig brain membrane assay, affinity for histamine H3 receptor binding sites (Korte et al.). The note with it: Example 5. An excerpt:
A particularly useful screening assay measures binding to sites in guinea pig brain membranes. This test is described in detail by Korte et al., "Characterization and Tissue Distribution of H3 Histamine Receptors in Guinea Pigs by N^α -Methylhistamine," in Biochemical and Biophysical Research Communications, Vol. 168, pages 979-986 (1990), and quantifies the displacement of bound radiolabeled N^α -methylhistamine from tissues by candidate compounds. Results are expressed as "Ki " values, in nanoMolar (nM) units, which values can be considered as being dissociation constants for the H3 antagonist on the H3 receptor system, or an index of antagonist affinity for the receptor. The present inventors have evidence that decongestant activity in their invention for a given H3 antagonist concentration can be predicted to increase as the Ki value obtained from the assay for an antagonist decreases. In general, Ki values less than about 200 nM are considered necessary for an agent to be useful as an H3 antagonist in the invention.
The affinity of various histamine H3 receptor antagonists for binding sites is determined by a guinea pig brain membrane assay, according to the procedure of Korte et al., Biochemical and Biophysical Research Communications, Vol. 168, pages 979-986 (1990).

The mark [4] stands for this setting: Example 1, i.v. 10 min before Compound 48/80, phenylpropanolamine 1.0 mg/Kg, thioperamide 10 mg/Kg, chlorpheniramine 0.8 mg/Kg (free drug), vehicle 9.1, baseline 2.6.

T1 sequence (Q9JI35 whole entry): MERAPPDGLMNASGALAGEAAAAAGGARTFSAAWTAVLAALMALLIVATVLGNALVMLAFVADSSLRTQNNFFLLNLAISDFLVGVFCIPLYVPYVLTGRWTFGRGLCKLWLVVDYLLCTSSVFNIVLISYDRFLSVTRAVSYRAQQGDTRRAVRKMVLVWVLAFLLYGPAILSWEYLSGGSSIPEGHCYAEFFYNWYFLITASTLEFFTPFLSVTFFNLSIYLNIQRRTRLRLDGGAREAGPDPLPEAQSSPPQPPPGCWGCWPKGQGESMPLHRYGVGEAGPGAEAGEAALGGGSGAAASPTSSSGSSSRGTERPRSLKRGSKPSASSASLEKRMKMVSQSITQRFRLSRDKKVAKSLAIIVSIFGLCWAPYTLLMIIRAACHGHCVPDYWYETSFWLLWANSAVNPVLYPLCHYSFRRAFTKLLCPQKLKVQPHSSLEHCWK

For the compound `CN(C)CCC(c1ccc(Cl)cc1)c1ccccn1` (centres unmarked) [Chlorpheniramine, chlorpheniramine], the “NAR (nasal airway resistance)” value in data set [1] (setting [4]) was 6.0 centimeters of water/liters pe.

Turning to `NC(=NCc1ccc(Cl)cc1)SCCCc1cnc[nH]1` [Clobenpropit, clobenpropit], the “Prevention of nasal congestion (in words)” value in data set [1] (Example 3, clobenpropit alone or with chlorpheniramine 0.8 mg/Kg) was “does not exhibit significant prevention of nasal congestion”. Further, in data set [1] (Example 3, i.v., clobenpropit 1.0 mg/Kg alone, vehicle 9.1), the “NAR (nasal airway resistance)” value is 5.5 centimeters of water/liters pe.

With `CCOC(=O)N1CCC(=C2c3ccc(Cl)cc3CCc3cccnc32)CC1` [Loratadine, loratadine], the “NAR (nasal airway resistance)” value in data set [1] (Example 6, loratadine 3 mg/Kg, thioperamide 10 mg/Kg, vehicle 30% dimethylsulfoxide, 40% ethanol, 30% normal saline (vehicle 12.6)) is 10.2 centimeters of water/liters pe.

Take `CC(N)C(O)c1ccccc1` (centres unmarked) [Phenylpropanolamine, phenylpropanolamine]: the “Blood pressure, change from baseline” value in data set [2] (i.v., thioperamide 10 mg/Kg + CPA 0.8 mg/kg, vehicle -16) is “+31 mm Hg”. In addition, the “Statistical difference of blood pressure change from vehicle” value in data set [2] is recorded as “statistically different from those for the vehicle”. The “Effect on blood pressure (in words)” value in data set [2] (thioperamide 10 mg/Kg + CPA 0.8 mg/kg) is recorded as “significantly increases blood pressure”. For the same compound, the “NAR (nasal airway resistance)” value in data set [1] (setting [4]) is 2.9 centimeters of water/liters pe. Also, the “Statistical difference of NAR from vehicle” value in data set [1] (Example 1, phenylpropanolamine 1.0 mg/Kg i.v.) is given as “statistically different result from that for the vehicle”. In addition, the “Nasal congestion-preventing effect compared with thioperamide + chlorpheniramine combination” value in data set [1] (Example 4 comment, phenylpropanolamine 1 mg/Kg) was “approximately equivalent nasal congestion-preventing effect”.

For the compound `S=C(NC1CCCCC1)N1CCC(c2cnc[nH]2)CC1` [Thioperamide, thioperamide], the “NAR (nasal airway resistance)” value in data set [1] (setting [4]) is reported as 6.7 centimeters of water/liters pe.

As for `COc1ccc(C/C(=N\O)C(=O)NCCc2c[nH]cn2)cc1Br` [Verongamine, verongamine], the inhibition constant (Ki) – broadly, a measure of affinity in units of concentration, obtained from inhibition or displacement – in data set [3] is greater than 200 nM. In addition, in data set [1] (Example 5, verongamine 10 mg/Kg), the “Statistical difference of NAR from vehicle” value is “not statistically different from that for the vehicle”. Further, in data set [1] (Example 5, verongamine 10 mg/Kg, different vehicle (vehicle 7.8)), the “NAR (nasal airway resistance)” value was 7.3 centimeters of water/liters pe.
